The values that follow come from patent US11559559B2, “Angiotensin II alone or in combination for the treatment of hypotension” (The George Washington University a Congressionally …, priority 2013, dated 2023).

The data set has as its system patients with high output shock. The conditions noted are these: in vivo.

Description: The investigators, clinical support staff, the patients and their families were unaware of the treatment assignment for the duration of the study.
Enrolled patients were randomized to receive the Study Drug infusion in normal saline calculated to run at a drip rate corresponding to an initial concentration of 20 ng/kg/min, plus the standard-of-care treatment for high output shock. The Study Drug was prepared in an opaque cellophane bag, the contents of which were unknown to the investigators, nurses or anyone else taking direct care of the patient. The Study Drug was administered for a total of 6 hours, with dose (and corresponding drip rate) adjustments made hourly. Study Drug dose adjustments were determined per a pre-specified protocol, based on the concomitant requirements of standard-of-care therapy (in all cases, norepinephrine infusion plus vasopressin, epinephrine and/or phenylephrine infusions) needed to maintain a mean arterial pressure (MAP) at or above 65 mm Hg, which is the standard practice at our institution. […] At the end of 6 hours, the Study Drug infusion was titrated off by being halved every 10 minutes until the Study Drug infusion dose was below 5 ng/kg/min, after which it was discontinued.
A small cohort of patients was analyzed, consistent with similar studies of this nature. […] An independent data and safety monitor (DSM) was assigned and reviewed all adverse events.

For the molecule `CC[C@H](C)[C@H](NC(=O)[C@H](Cc1ccc(O)cc1)NC(=O)[C@@H](NC(=O)[C@H](CCCNC(=N)N)NC(=O)[C@@H](N)CC(=O)O)C(C)C)C(=O)N[C@@H](Cc1cnc[nH]1)C(=O)N1CCC[C@H]1C(=O)N[C@@H](Cc1ccccc1)C(=O)O` [ATII, angiotensin II], the “Adverse events: Acidosis” value was determined as 2, the “Adverse events: Atrial Fibrillation” value is recorded as 2, the “Adverse events: Blood or lymphatic disorders” value turned out to be 3 and the “Adverse events: Cardiac disorders” value was 7. Moreover, the “Adverse events: Decreased urine output” value is recorded as 3, the “Adverse events: Hypertension” value turned out to be 2, the “Adverse events: Hypotension” value was found to be 2 and the “Adverse events: Metabolic disorders” value was found to be 11. The “Adverse events: Other disorders” value was 5, the “Adverse events: Renal disorders” value is reported as 6, the “Adverse events: Respiratory disorders” value amounted to 3 and the “Adverse events: Wheezing” value was determined as 1. Also, the “Adverse events: Worsening AKI” value was found to be 0; the “Adverse events: Worsening MOSF” value came out at 2; the “Adverse events: Worsening respiratory failure” value turned out to be 1; the “hypertension, patients receiving ATII in whom it occurred” value was determined as 20%. Further, the “patients in whom ATII infusion was discontinued due to hypertension” value is reported as “^⋄ATII infusion was discontinued in two patients due to hypertension” and the tolerability result was “well-tolerated”.
